This passage reports IC50 results from patent publication US20260070945A1, “MACROCYCLIC IMMUNOMODULATORS” (Bristol-Myers Squibb Company, priority 2022, published 2026).

Where a SMILES comes first, the peptide text is derived from it. Bridges are numbered along the chain shown (N, C = ends). [ ]: non-standard residue; d: D form. The star is where a group is joined. ξ: configuration not given here. Phe(4-COOH) = N[C@@H](Cc1ccc(C(=O)O)cc1)C(=O)O; Bip = N[C@@H](Cc1ccc(-c2ccccc2)cc1)C(=O)O; Morpholine(3S-CO) = O=C(O)[C@@H]1COCCN1; NH(CH2)14COOH = O=C(O)CCCCCCCCCCCCCCN*; Phe(3-Me) = Cc1cccc(C[C@H](N)C(=O)O)c1; NH(CH2)12COOH = O=C(O)CCCCCCCCCCCCN*; Val(3-OH) = CC(C)(O)[C@H](N)C(=O)O; hArg = N=C(N)NCCCC[C@H](N)C(=O)O; 4Pal = N[C@@H](Cc1ccncc1)C(=O)O; Cha = N[C@@H](CC1CCCCC1)C(=O)O; Cit = NC(=O)NCCC[C@H](N)C(=O)O; Ile(3ξ) = CCC(C)[C@H](N)C(=O)O; Thr(3ξ) = CC(O)[C@H](N)C(=O)O; 12Ado = NCCCCCCCCCCCC(=O)O; NMeS = CN[C@@H](CO)C(=O)O; Carboxymethyl = O=C(O)C*; NMeA = CN[C@@H](C)C(=O)O; Aun = NCCCCCCCCCCC(=O)O; Dab = NCC[C@H](N)C(=O)O; Dap = NC[C@H](N)C(=O)O; AEEA = NCCOCCOCC(=O)O

The target in one test is T1, PD-1/PD-L1 interaction (PE-labeled human PD-L1-Ig binding to Jurkat cell line over-expressing human PD-1) (Homo sapiens, UniProt Q15116).
T1 construct: expressed in transfected cells; host or cells: Jurkat
T1 sequence (Q15116 25-288): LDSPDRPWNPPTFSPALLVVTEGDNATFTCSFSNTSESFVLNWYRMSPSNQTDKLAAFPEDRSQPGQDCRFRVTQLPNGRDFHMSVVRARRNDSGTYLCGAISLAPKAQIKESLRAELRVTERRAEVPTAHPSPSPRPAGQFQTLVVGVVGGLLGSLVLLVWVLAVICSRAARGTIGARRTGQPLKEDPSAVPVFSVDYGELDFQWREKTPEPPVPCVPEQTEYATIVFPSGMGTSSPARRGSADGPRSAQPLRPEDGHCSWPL
The test is described as follows: Jurkat-PD-1 Cell Binding High-Content Screening Assay (CBA). To be noted: Jurkat-hPD-1 cells, PE-labeled PD-L1-Ig 20 nM final; read-out: Jurkat HPD1 PDL1 IC50. The gist of the method: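 High-content imaging read-out of PE-PD-L1-Ig binding (20 nM final, 1 h) to Jurkat-hPD-1 cells, after 2 h compound exposure at 37 °C in DMEM with 10% FCS. Nuclei counterstained with Hoechst 33342 after paraformaldehyde fixation.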
Take `CC(C)C[C@@H]1NC(=O)[C@H](Cc2c[nH]c3ccccc23)NC(=O)[C@H](CC(=O)O)NC(=O)[C@H](Cc2ccc(C(=O)O)cc2)NC(=O)[C@H](CCCCNC(=N)N)NC(=O)CSC[C@@H](C(=O)N[C@@H](C)C(=O)N[C@@H](CCN)C(=O)NCCCCCCCCCCCCCCC(=O)O)NC(=O)[C@H](CO)NC(=O)[C@H](C(C)C)NC(=O)[C@H](CC2CCCCC2)NC(=O)[C@H](CCN)NC(=O)[C@@H](CC(C)C)NC(=O)[C@H](C)N(C)C(=O)[C@H](C(C)C)NC(=O)[C@H](Cc2ccc(-c3ccccc3)cc2)NC1=O` [Example 2001] ({CH2CO}-[hArg][Phe(4-COOH)]DWL[Bip]V[NMeA][dL][Dab][Cha]VSCA[Dab]-{NH(CH2)14COOH}; thioether N-14): the IC50 – broadly, the concentration that gives 50% inhibition – came to 123 nM.
Same read-out and setting: in the case of `Cc1cccc(C[C@@H]2NC(=O)[C@H](CC(=O)O)NC(=O)[C@H](Cc3ccc(OCC(=O)O)cc3)NC(=O)[C@H](CO)N(C)C(=O)CSC[C@@H](C(=O)NCCOCCOCC(=O)NCCCCCCCCCCC(=O)O)NC(=O)[C@H](CCCNC(=N)N)NC(=O)[C@H](C(C)C)NC(=O)[C@H](CC3CCCCC3)NC(=O)[C@H](CCN)NC(=O)[C@@H](CC(C)C)NC(=O)[C@H](C)N(C)C(=O)[C@H](C(C)C)NC(=O)[C@H](Cc3ccc(-c4ccccc4)cc3)NC(=O)[C@H](CC(C)C)NC2=O)c1` [Example 2277] ({CH2CO}-[NMeS]Y(Carboxymethyl)D[Phe(3-Me)]L[Bip]V[NMeA][dL][Dab][Cha]VRC[AEEA][Aun]-OH; thioether N-14) it was 18.7 nM; in that of `Cc1cccc(C[C@@H]2NC(=O)[C@H](CC(=O)O)NC(=O)[C@H](Cc3ccc(C(=O)O)cc3)NC(=O)[C@H](Cc3ccc(OCC(=O)O)cc3)NC(=O)CSC[C@@H](C(=O)NCCCCCCCCCCC(=O)O)NC(=O)[C@H](C(C)O)NC(=O)[C@H](C(C)C)NC(=O)[C@H](CC3CCCCC3)NC(=O)[C@H](CCN)NC(=O)[C@@H](CC(C)C)NC(=O)[C@H](C)N(C)C(=O)[C@H](Cc3ccc(O)cc3)NC(=O)[C@H](Cc3ccc(-c4ccccc4)cc3)NC(=O)[C@H](Cc3ccc(O)cc3)NC2=O)c1` (stereo partly drawn) [Example 2331] ({CH2CO}-Y(Carboxymethyl)[Phe(4-COOH)]D[Phe(3-Me)]Y[Bip]Y[NMeA][dL][Dab][Cha]V[Thr(3ξ)]C[Aun]-OH; thioether N-14), 160 nM.
Still for that read-out and setting: to `Cc1cccc(C[C@@H]2NC(=O)[C@H](CC(=O)O)NC(=O)[C@H](Cc3ccc(C(=O)O)cc3)NC(=O)[C@H](Cc3ccc(OCC(=O)O)cc3)NC(=O)CSC[C@@H](C(=O)N[C@@H](CC(=O)O)C(=O)NCCCCCCCCCCC(=O)O)NC(=O)[C@H](CO)NC(=O)[C@H](C(C)C)NC(=O)[C@H](CC(C)C)NC(=O)[C@H](CC(N)=O)NC(=O)[C@@H](CC(C)C)NC(=O)[C@H](C)N(C)C(=O)[C@H](C(C)C)NC(=O)[C@H](Cc3ccc(-c4ccccc4)cc3)NC(=O)[C@H](CC(C)C)NC2=O)c1` [Example 1001] ({CH2CO}-Y(Carboxymethyl)[Phe(4-COOH)]D[Phe(3-Me)]L[Bip]V[NMeA][dL]NLVSCD[Aun]-OH; thioether N-14 (inferred)) belongs 92.1 nM.
On the same count and under the same terms, in the case of `CC(C)C[C@@H]1NC(=O)[C@H](Cc2c[nH]c3ccccc23)NC(=O)[C@H](CC(=O)O)NC(=O)[C@H](Cc2ccncc2)NC(=O)[C@H](Cc2ccc(OCC(=O)O)cc2)NC(=O)CSC[C@@H](C(=O)N2CCOC[C@H]2C(=O)NCCCCCCCCCCC(=O)O)NC(=O)[C@H](CCCNC(N)=O)NC(=O)[C@H](C(C)C)NC(=O)[C@H](CC2CCCCC2)NC(=O)[C@H](CCN)NC(=O)[C@@H](CC(C)C)NC(=O)[C@H](C)N(C)C(=O)[C@H](C(C)C)NC(=O)[C@H](Cc2ccc(-c3ccccc3)cc2)NC1=O` [Example 1223] ({CH2CO}-Y(Carboxymethyl)[4Pal]DWL[Bip]V[NMeA][dL][Dab][Cha]V[Cit]C[Morpholine(3S-CO)][Aun]-OH; thioether N-14) it was 420 nM; in that of `Cc1cccc(C[C@@H]2NC(=O)[C@H](CC(=O)O)NC(=O)[C@H](Cc3ccc(OCC(=O)O)cc3)NC(=O)[C@H]([C@@H](C)O)NC(=O)CSC[C@@H](C(=O)N[C@@H](CCN)C(=O)NCCCCCCCCCCC(=O)O)NC(=O)[C@H](CCC(=O)O)NC(=O)[C@H](C(C)C)NC(=O)[C@H](CC3CCCCC3)NC(=O)[C@H](CCN)NC(=O)[C@@H](CC(C)C)NC(=O)[C@H](C)N(C)C(=O)[C@H](Cc3ccc(OCC(=O)O)cc3)NC(=O)[C@H](Cc3ccc(-c4ccccc4)cc3)NC(=O)[C@H](Cc3ccc(OCC(=O)O)cc3)NC2=O)c1` [Example 1422] ({CH2CO}-TY(Carboxymethyl)D[Phe(3-Me)]Y(Carboxymethyl)[Bip]Y(Carboxymethyl)[NMeA][dL][Dab][Cha]VEC[Dab][Aun]-OH; thioether N-14), 20.2 nM; in that of `CCC(C)[C@@H]1NC(=O)[C@H](Cc2ccc(-c3ccccc3)cc2)NC(=O)[C@H](C(C)C)NC(=O)[C@H](Cc2c[nH]c3ccccc23)NC(=O)[C@H](CC(=O)O)NC(=O)[C@H](Cc2ccc(O)cc2)NC(=O)[C@H](Cc2ccncc2)NC(=O)CSC[C@@H](C(=O)N[C@@H](CN)C(=O)NCCOCCOCC(=O)NCCCCCCCCCCC(=O)O)NC(=O)[C@H](C(C)O)NC(=O)[C@H](C(C)C)NC(=O)[C@H](CC2CCCCC2)NC(=O)[C@H](CC(N)=O)NC(=O)[C@@H](CC(C)C)NC(=O)[C@H](C)N(C)C1=O` (stereo partly drawn) [Example 2068] ({CH2CO}-[4Pal]YDWV[Bip][Ile(3ξ)][NMeA][dL]N[Cha]V[Thr(3ξ)]C[Dap][AEEA][Aun]-OH; thioether N-14), 106 nM.

The same test, now with this note: PE-labeled PD-L1-Ig 20 nM final, Jurkat-hPD-1 cells; read-out: Jurkat HPD1 PDL1 IC50.
Consider `Cc1cccc(C[C@@H]2NC(=O)[C@H](CC(=O)O)NC(=O)[C@H](Cc3ccc(C(=O)O)cc3)NC(=O)[C@H](C(C)O)NC(=O)CSC[C@@H](C(=O)N[C@@H](CCN)C(=O)NCCCCCCCCCCCCC(=O)O)NC(=O)[C@H](CO)NC(=O)[C@H](C(C)(C)O)NC(=O)[C@H](CC3CCCCC3)NC(=O)[C@H](CCN)NC(=O)[C@@H](CC(C)C)NC(=O)[C@H](C)N(C)C(=O)[C@H](CCCNC(=N)N)NC(=O)[C@H](Cc3ccc(-c4ccccc4)cc3)NC(=O)[C@H](Cc3ccc(C(=O)O)cc3)NC2=O)c1` (stereo partly drawn) [Example 2644] ({CH2CO}-[Thr(3ξ)][Phe(4-COOH)]D[Phe(3-Me)][Phe(4-COOH)][Bip]R[NMeA][dL][Dab][Cha][Val(3-OH)]SC[Dab]-{NH(CH2)12COOH}; thioether N-14), for which the 50% inhibitory concentration (IC50) worked out at 16.6 nM.
On the same count and under the same terms, in the case of `Cc1cccc(C[C@@H]2NC(=O)[C@H](CC(=O)O)NC(=O)[C@H](Cc3ccc(OCC(=O)O)cc3)NC(=O)[C@H]([C@@H](C)O)NC(=O)CSC[C@@H](C(=O)N[C@@H](CCN)C(=O)NCCOCCOCC(=O)NCCCCCCCCCCCC(=O)O)NC(=O)[C@H](Cc3ccc(-c4ccccc4)cc3)NC(=O)[C@H](C(C)C)NC(=O)[C@H](CC3CCCCC3)NC(=O)[C@H](CCN)NC(=O)[C@@H](CC(C)C)NC(=O)[C@H](C)N(C)C(=O)[C@H](Cc3ccc(OCC(=O)O)cc3)NC(=O)[C@H](Cc3ccc(-c4ccccc4)cc3)NC(=O)[C@H](Cc3ccc(OCC(=O)O)cc3)NC2=O)c1` [Example 2674] ({CH2CO}-TY(Carboxymethyl)D[Phe(3-Me)]Y(Carboxymethyl)[Bip]Y(Carboxymethyl)[NMeA][dL][Dab][Cha]V[Bip]C[Dab][AEEA][12Ado]-OH; thioether N-14) it was 21.3 nM.
